Legend:
Type in all cases: in vivo
[1] = tested on: Thrips palmi; assay: Example 9: cucumbers against Thrips palmi; conditions: for Efficacy (% Abbott) 3 d: 3 d after treatment 1, nymphs on leaves, Imidacloprid (100 SL) 100, (I-4) (240 SC + 0.2% rapeseed oil methyl ester) 72 g a.s./ha, two applications, interval 8 days; for Efficacy (% Abbott) 8 d: 8 d after treatment 1, Imidacloprid 100, (I-4) 72 g a.s./ha; for Efficacy (% Abbott) 11 d: 11 d after treatment 1, Imidacloprid 100, (I-4) 72 g a.s./ha; for Efficacy (% Abbott) 15 d: 15 d after treatment 1, Imidacloprid 100, (I-4) 72 g a.s./ha
Method: Plots approximately 10 m^2 in size which are planted with cucumbers are treated, in three replications, against Thrips palmi. The application is carried out with a knapsack sprayer which is operated with pressurized air. Here, the active substance Example (I-4) (240 SC), in a tank mix with 0.2% a.s. rapeseed oil methyl ester (500 EW) and the commercial standard Imidacloprid (100 SL), is applied at the specified application rates. The application is carried out with a water application rate of […]. Two applications are carried out at an interval of 8 days.
The test is evaluated 3, 8, 11 and 15 days after treatment 1 by scoring the destruction rate of the animals (nymphs) on the leaves.

[2] = tested on: Carpocapsa pomonella; assay: Example 30: apple trees against Carpocapsa pomonella, fruit damage; conditions: 14 days after treatment 2, Imidacloprid (200 SC) 0.015 %, (I-4) (150 OD) 0.015 %
Method: Approx. 16-year-old apple trees cv. “Golden Delicious” are treated, in four replications, against Carpocapsa pomonella. The application is carried out with a spray diffuser. Here, the active substance Example (I-4) (150 OD) is applied in comparison with Imidacloprid (200 SC) at the specified application rates. Two applications are carried out at an interval of 16 days, with a water application rate of 1000 l/ha.
The test is evaluated 14 days after treatment 2 by scoring the fruit damage with the aid of the Abbott formula.

[3] = tested on: Empoasca biguttula; assay: Example 12: cotton against Empoasca biguttula; conditions: for Efficacy (% H + T) 3 d: 3 d after second treatment, Henderson and Tilton, Imidacloprid (SL 100) 30, (I-4) (240 SC + 0.2% rapeseed oil methyl ester) 24, Buprofezin (WP50) 50 g a.s./ha; for Efficacy (% H + T) 7 d: 7 d after second treatment; for Efficacy (% H + T) 7 d / Efficacy (% H + T) 14 d / Efficacy (% H + T) 21 d: Imidacloprid 30, (I-4) 24, Buprofezin 50 g a.s./ha; for Efficacy (% H + T) 14 d: 14 d after second treatment; for Efficacy (% H + T) 21 d: 21 d after second treatment
Method: Plots 10 m^2 in size which are planted with cotton are treated, in three replications, against Empoasca biguttula. The application is carried out with a knapsack sprayer operated with pressurized air. Here, the active substance Example (I-4) (240 SC), in a tank mix with 0.2% a.s. rapeseed oil methyl ester (500 EW), is tested against the commercial standards Imidacloprid (SL 100) and Buprofezin (WP50) at the specified application rates. Two applications are carried out at an interval of 7 days. The water application rate is 750 l/ha.
The test is evaluated 3, 7, 14 and 21 days after the second treatment by counting the live animals. Thereafter, the efficacy is calculated in percent, using the formula of Henderson and Tilton.

[4] = tested on: Idioscopus clypealis; assay: Example 14: mango tree against Idioscopus clypealis; conditions: nymphs on infructescences; for Efficacy (% Abbott) 7 days after treatment 4 / Efficacy (% Abbott) 7 days after treatment 5: Imidacloprid 0.00025 %, (I-4) 0.0016 %, Pymetrozine 0.002 %; for Efficacy (% Abbott) 7 days after treatment 3: Imidacloprid (100 SL) 0.00025 %, (I-4) (240 SC + 0.2% rapeseed oil methyl ester) 0.0016 %, Pymetrozine (WP 25) 0.002 %
Method: A mango tree which is approximately 14 years old is treated, in three replications, against Idioscopus clypealis. The application is carried out with a high-pressure sprayer. Here, the active substance Example (I-4) (240 SC), in a tank mix with 0.2% a.s. rapeseed oil methyl ester (500 EW) and the commercial standards Imidacloprid (100 SL) and Pymetrozine (WP 25), is tested at the specified application rates. The amount of spray mixture is 10 l/tree. Five treatments are carried out at intervals of 7, 14, 21 and 28 days.
The test is evaluated in each case 7 days after treatments 3 to 5 by scoring the destruction rate of the nymphs on the infructescences.

[5] = tested on: Scirtothrips dorsalis; assay: Example 10: tea plants against Scirtothrips dorsalis; conditions: 7 d after treatment, nymphs, Ethiprole (SC10) 0.005, (I-4) (100 OD) 0.01, Imidacloprid (50 WG) 0.005 % a.s.
Method: Plots approx. 5 m^2 in size which are planted with tea plants cv. “Yabukita” which are approximately 18 years old are treated, in three replications, against Scirtothrips dorsalis. Here, the active substance Example (I-4) (100 OD) is tested, at the specified application rates, against the commercial standards Ethiprole (SC10 flowable) and Imidacloprid (50 WG). The application is carried out with a sprayer which is operated with pressurized air. The water application rate is 4500 l/ha. The test is evaluated 7 days after the treatment by scoring the destruction rate of the nymphs and the plants.

[6] = tested on: Thrips palmi; assay: Example 4: aubergines against Thrips palmi; conditions: nymphs on leaves, (I-4) (240 SC + 0.2% rapeseed oil methyl ester) 0.0096 % a.s.; for Efficacy (% Abbott) 7 d after treatm. 3 / Efficacy (% Abbott) 14 d after treatm. 3 / Efficacy (% Abbott) 21 d after treatm. 3: Imidacloprid 0.01 % a.s.; for Efficacy (% Abbott) 4 d after treatm. 2: Imidacloprid (100 SL) 0.01 % a.s., three applications
Method: Plots 10 m^2 in size which are planted with aubergines cv. “Dumaguete Long Purple” are treated, in three replications, against Thrips palmi. The application is effected with a knapsack sprayer which is operated with pressurized air. Here, the active substance Example (I-4) (240 SC), in a tank mix together with 0.2% a.s. rapeseed oil methyl ester […] and the commercial standard Imidacloprid (100 SL), is tested at the specified application rates. The water application rate is 400 l/ha. Three applications are carried out at intervals of 8 and 7 days, respectively.
The test is evaluated in each case 4 days after treatment 2 and 7, 14 and 21 days after treatment 3 by scoring the destruction of the nymphs on the leaves.

[7] = tested on: Lygus spinolai; assay: Example 1A: field test on tea plants against Lygus spinolai; conditions: nymphs on shoots, Imidacloprid (10 WP) 0.005 % a.s., (I-4) (150 OD) 0.01 % a.s.; for Efficacy (% Abbott) 15 d: 15 d after treatment; for Efficacy (% Abbott) 29 d: 29 d after treatment
Method: Plots approximately 4 m^2 in size which are planted with tea plants c.v. “Yabukita” are treated, in 3 replications, against Lygus spinolai. Here, the active substance Example (I-4) (150 OD) is tested at the specified application rate against the commercial standard Imidacloprid (10 WP) at the specified application rate. The application is effected with an engine-driven knapsack sprayer. Here, the treatment is carried out with a water application rate of 10 000 l/ha.
The test is evaluated 15 and 29 days after the treatment by determining the destruction of the nymphs on the shoots.

SMILES | Efficacy (% Abbott) 3 d [1] [% Abbott] | Efficacy (% Abbott) 8 d [1] [% Abbott] | Efficacy (% Abbott) 11 d [1] [% Abbott] | Efficacy (% Abbott) 15 d [1] [% Abbott] | Efficacy (% Abbott) [2] [% Abbott] | Efficacy (% H + T) 3 d [3] [% H + T] | Efficacy (% H + T) 7 d [3] [% H + T] | Efficacy (% H + T) 14 d [3] [% H + T] | Efficacy (% H + T) 21 d [3] [% H + T] | Efficacy (% Abbott) 7 days after treatment 4 [4] [% Abbott] | Efficacy (% Abbott) 7 days after treatment 5 [4] [% Abbott] | Efficacy (% Abbott) 7 days after treatment 3 [4] [% Abbott] | Efficacy (% Abbott) 7 d [5] [% Abbott] | Efficacy (% Abbott) 7 d after treatm. 3 [6] [% Abbott] | Efficacy (% Abbott) 14 d after treatm. 3 [6] [% Abbott] | Efficacy (% Abbott) 21 d after treatm. 3 [6] [% Abbott] | Efficacy (% Abbott) 4 d after treatm. 2 [6] | Efficacy (% Abbott) 15 d [7] [% Abbott] | Efficacy (% Abbott) 29 d [7] [% Abbott]
CCOC(=O)OC1=C(c2cc(C)ccc2C)C(=O)N[C@]12CC[C@@H](OC)CC2 [Example (I-4)] | 64.5 | 91.0 | 80.4 | 70.1 | 73.7 | 92.1 | 92.9 | 84.4 | 72.6 | 98.1 | 99.4 | 54.7 | 100 | 75.0 | 82.8 | 90.6 | 82.9 % Abbott | 92.9 | 100
O=[N+]([O-])NC1=NCCN1Cc1ccc(Cl)nc1 [Imidacloprid] | 85.3 | 85.5 | 91.7 | 77.1 | 26.3 | 97.3 | 99.6 | 95.6 | 72.5 | 82.2 | 86.4 | 69.1 | 44.4 | 75.0 | 62.1 | 53.1 | 82.9. % Abbott | 35.7 | 48.1

Reference: patent US20090298903A1, “USE OF TETRAMIC ACID DERIVATIVES FOR INSECT CONTROL” (priority 2006, published 2009)
